Holding throughout (format): functional
Assay [1] concerns P388. Kind of assay: In vivo antileukemic activity against mouse P388 cells at 10 mg/kg relative to control.
The test system of another assay is KB. Kind of assay: Cytotoxicity against human KB cells.
In assay [2] the test system is P388. Kind of assay: In vivo antileukemic activity against mouse P388 cells at 40 mg/kg relative to control.

This passage reports T/C, ED50 and EC50 results from ChEMBL document CHEMBL1151641, “Antitumor agents, 71. Nudaphantin, a new cytotoxic germacranolide, and elephantopin from Elephantopus nudatus” (1985).

≈ marks a conversion by molar mass, not a printed value.

For orientation: T/C means the ratio of treated to control. As to `C=C(C)C(=O)O[C@H]1CC2=C[C@@H](C[C@@]3(C)O[C@@H]3[C@H]3OC(=O)C(=C)[C@@H]31)OC2=O` [ELEPHANTOPIN], the T/C with P388 [1] came out at 160%; with P388 [2] it was 171%. Also, in the assay on KB, the ED50 stood at 0.32 µg/mL (≈ 0.888 µM).
As to `C=C(C)C(=O)O[C@H]1CC2=C[C@@H](C[C@@]3(C)O[C@@H]3[C@H]3OC(=O)C(=C)[C@@H]31)OC2OCC` (some centres undefined) [NUDAPHANTIN], in the assay with KB (Homo sapiens, KB, read-out: ED50 (the source's name)), the EC50 was found to be 0.31 µg/mL (≈ 0.794 µM).
